Source: patent US20250108048A1, “STING AGONIST COMPOUNDS AND CONJUGATES” (SUTRO BIOPHARMA, INC., priority 2023, published 2025)

Assays:
[1] = target: hSTING WT (Homo sapiens, UniProt Q86WV6); test: Surface plasmon resonance, hSTING WT; type: binding; conditions: read-out: hSTING WT SPR (Kd)
[2] = target: T1, mSTING (Mus musculus, UniProt Q3TBT3); test: THP1-Dual KI-mSTING reporter assay; type: cell-based; parameters: host or cells: THP1-Dual KI-mSTING (from THP1-Dual KO-STING); conditions: THP1-Dual KI-mSTING cells, 24 hours; read-out: Reporter assay EC50 (nM) THP-1 mSTING
T1 sequence (Q3TBT3 1-378): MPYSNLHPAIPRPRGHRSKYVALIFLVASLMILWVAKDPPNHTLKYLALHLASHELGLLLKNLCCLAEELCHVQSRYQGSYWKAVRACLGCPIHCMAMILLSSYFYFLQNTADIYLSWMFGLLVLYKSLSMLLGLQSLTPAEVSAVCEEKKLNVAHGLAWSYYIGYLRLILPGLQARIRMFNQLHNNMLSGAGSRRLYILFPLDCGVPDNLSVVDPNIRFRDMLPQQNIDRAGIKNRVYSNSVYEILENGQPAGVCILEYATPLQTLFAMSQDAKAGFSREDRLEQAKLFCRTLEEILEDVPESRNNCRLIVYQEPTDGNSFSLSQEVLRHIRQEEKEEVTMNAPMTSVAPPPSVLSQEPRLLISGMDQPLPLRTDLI
Description: The activities of the STING agonists to activate human or mouse STING pathways were evaluated in THP-1-Dual™, THP1-Dual™ KI-hSTING-R232, THP1-Dual™ KI-hSTING-H232 Cells and THP1-Dual™ KI-mSTING Cells. THP-1-Dual™ cells contains hSTING-HAQ haplotype and can be used to evaluate the activity of STING agonists by monitoring the activation of NF-κB pathway and the […] (IFN regulatory factor) pathways. THP1-Dual™ KO-STING cells were generated from THP1-Dual™ cells by stable knockout of the endogenous HAQ STING gene. THP1-Dual™ KI-hSTING-R232 cells, THP1-Dual™ KI-hSTING-H232 cells and THP1-Dual™ KI-mSTING cells were generated by transfecting THP1-Dual™ KO-STING cells with hSTING-R232 or hSTING-H232 or mSTING. Stimulating these reporter cells with a STING agonist activates TRF pathway and induces the production of a secreted Lucia luciferase in the cell culture medium, which can be determined using QUANTI-Luc™ reagent.
THP-1-Dual™, THP1-Dual™ KI-hSTING-R232, THP1-Dual™ KI-hSTING-H232 and THP1-Dual™ KI-mSTING reporter cells were purchased from Invivogen and maintained in manufacture recommended culture medium with required supplemental antibiotics. On the day of assay, the cells were harvested with Accutase and counted by the Vi-CELL Cell Viability Analyzers. Cells were resuspended in HEK blue detection medium and a total of 10000 cells were seeded in each well of a 384-well flat bottom plate. Serial dilutions of STING agonists free drugs (1:3 serial dilution starting from 5 uM) was added into treatment wells. After incubation at 37° C. in a CO2 incubator for 24 hours, 20 μl of cell culture medium per well was transferred into a 384-well white (opaque) plate. 50 μl of QUANTI-Luc™ assay solution was then added to each well and the plate was immediately transferred to an ENVISION® plate reader to measure luminescence (Perkin-Elmer). Relative luminescence readings were converted to fold change of signal using untreated cells as controls. Data was fitted with non-linear regression analysis, using log (agonist) vs. response, variable slope, 4-parameter fit equation using GraphPad Prism. Data was expressed as fold change in signal vs. dose of STING agonist in nM with error bars indicating the Standard Deviation (SD) of the quadruplicates. There result was reported in Table 2 as EC50 (the midpoint of the curve, or concentration at which […] of the maximum effect was observed).

Sequence of hSTING WT (Q86WV6 whole entry H232R): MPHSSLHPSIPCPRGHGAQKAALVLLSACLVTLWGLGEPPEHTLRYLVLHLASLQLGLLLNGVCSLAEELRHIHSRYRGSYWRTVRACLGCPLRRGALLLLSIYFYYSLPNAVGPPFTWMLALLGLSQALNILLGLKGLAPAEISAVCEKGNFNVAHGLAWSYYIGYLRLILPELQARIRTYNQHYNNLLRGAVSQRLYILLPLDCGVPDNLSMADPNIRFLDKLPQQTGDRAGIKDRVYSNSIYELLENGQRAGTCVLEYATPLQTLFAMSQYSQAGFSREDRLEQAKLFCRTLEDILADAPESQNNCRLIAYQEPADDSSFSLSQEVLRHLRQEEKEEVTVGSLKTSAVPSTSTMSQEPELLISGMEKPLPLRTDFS

What does the source list for CCn1nc(C)cc1C(=O)Nc1nc2cc(C(N)=O)cc(OC)c2n1C/C=C/Cn1c(NC(=O)c2cc(C)nn2CC)nc2cc(C(N)=O)cc(OCCCN3CCC(c4nnc5n4CCNC5)CC3)c21 [Compound 4, 1-[(E)-4-[5-carbamoyl-2-[(2-ethyl-5-methyl-pyrazole-3-carbonyl)amino]-7-[3-[4-(5,6,7,8-tetrahydro-[1,2,4]triazolo[4,3-a]pyrazin-3-yl)-1-piperidyl]propoxy]benzimidazol-1-yl]but-2-enyl]-2-[(2-ethyl-5-methyl-pyrazole-3-carbonyl)amino]-7-methoxy-benzimidazole-5-carboxamide; 2,2,2-trifluoroacetic acid]?
Kd [1]: ≤ 0.02 µM; EC50 [2]: > 150 nM
